From patent US12655116B2, “Substituted isophthalic acid diamides” (Bayer Aktiengesellschaft, priority 2020, dated 2026)

Legend:
MATIN [1] = test: Post-emergence herbicidal action against MATIN; format: in vivo, Matricaria inodora; conditions: Tripleurospermum inodorum, 504 h; for pest or weed control at 20 g/ha: dosage 20 g/ha; for pest or weed control at 80 g/ha: dosage 80 g/ha
Method in brief: (§1)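 Foliar application at one-leaf stage of formulated test compounds, aqueous spray at 600–800 l/ha with 0.2% wetting agent. Greenhouse, optimal conditions, ~3 weeks; damage scored visually in % relative to untreated plants.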

ALOMY [2] = test: Pre-emergence herbicidal action against ALOMY; format: in vivo, Alopecurus myosuroides; conditions: Alopecurus myosuroides, 504 h, pre-emergence; for pest or weed control at 80 g/ha: scored visually after 3 weeks vs untreated controls (100% = plants have died, 0% = like control plants); for pest or weed control at 320 g/ha: scored visually after 3 weeks, 100% = plants have died, 0% = like control plants
Method in brief: (§2)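 Greenhouse pots of sandy loam held seeds covered with soil, onto which the compound was applied before emergence. An aqueous suspension or emulsion of WP or EC was used at 600 to 800 l/ha with 0.2% wetting agent. Percent damage was judged visually at 3 weeks.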

MATIN [3] = test: Pre-emergence herbicidal action against MATIN; format: in vivo, Matricaria inodora; conditions: Tripleurospermum inodorum, 504 h; for pest or weed control at 80 g/ha: dosage 80 g/ha; for pest or weed control at 320 g/ha: dosage 320 g/ha
Method in brief: as §2

PHBPU = test: Post-emergence herbicidal action against PHBPU; format: in vivo, Pharbitis purpurea; conditions: Ipomoea purpurea, 504 h; for pest or weed control at 80 g/ha: dosage 80 g/ha
Method in brief: as §1

SETVI = test: Pre-emergence herbicidal action against SETVI; format: in vivo, Setaria viridis; conditions: Setaria viridis, 504 h; for pest or weed control at 80 g/ha: dosage 80 g/ha; for pest or weed control at 320 g/ha: dosage 320 g/ha
Method in brief: as §2

ABUTH [4] = test: Post-emergence herbicidal action against ABUTH; format: in vivo, Abutilon theophrasti; conditions: Abutilon theophrasti, 504 h, visual assessment about 3 weeks after treatment vs untreated controls; for pest or weed control at 20 g/ha: dosage 20 g/ha; for pest or weed control at 80 g/ha: dosage 80 g/ha
Method in brief: as §1

HORMU [5] = test: Post-emergence herbicidal action against HORMU; format: in vivo, Hordeum murinum; conditions: Hordeum murinum, 504 h; for pest or weed control at 20 g/ha: dosage 20 g/ha; for pest or weed control at 80 g/ha: dosage 80 g/ha
Method in brief: as §1

AMARE = test: Pre-emergence herbicidal action against AMARE; format: in vivo, Amaranthus retroflexus; conditions: Amaranthus retroflexus, 504 h, 100% = plants have died, 0% = like control plants; for pest or weed control at 80 g/ha: scored visually after 3 weeks vs untreated controls; for pest or weed control at 320 g/ha: scored visually after 3 weeks
Method in brief: as §2

ALOMY [6] = test: Post-emergence herbicidal action against ALOMY; format: in vivo, Alopecurus myosuroides; conditions: Alopecurus myosuroides, 504 h, visual assessment about 3 weeks after treatment vs untreated controls; for pest or weed control at 20 g/ha: dosage 20 g/ha; for pest or weed control at 80 g/ha: dosage 80 g/ha
Method in brief: as §1

VERPE [7] = test: Post-emergence herbicidal action against VERPE; format: in vivo, Veronica persica; conditions: Veronica persica, 504 h
Method in brief: as §1

STEME [8] = test: Pre-emergence herbicidal action against STEME; format: in vivo, Stellaria media; conditions: Stellaria media, 504 h; for pest or weed control at 80 g/ha: dosage 80 g/ha; for pest or weed control at 320 g/ha: dosage 320 g/ha
Method in brief: as §2

VIOTR = test: Post-emergence herbicidal action against VIOTR; format: in vivo, Viola tricolor; conditions: Viola tricolor, 504 h, 80 g/ha
Method in brief: as §1

LOLRI = test: Pre-emergence herbicidal action against LOLRI; format: in vivo, Lolium rigidum; conditions: Lolium rigidum, 504 h, 320 g/ha
Method in brief: as §2

ABUTH [9] = test: Pre-emergence herbicidal action against ABUTH; format: in vivo, Abutilon theophrasti; conditions: Abutilon theophrasti, 504 h; for pest or weed control at 80 g/ha: scored visually after 3 weeks vs untreated controls (100% = plants have died, 0% = like control plants); for pest or weed control at 320 g/ha: Dosage: 320 g/ha, scored visually after 3 weeks, 100% = plants have died, 0% = like control plants
Method in brief: as §2

HORMU [10] = test: Pre-emergence herbicidal action against HORMU; format: in vivo, Hordeum murinum; conditions: Hordeum murinum, 504 h, pre-emergence
Method in brief: as §2

STEME [11] = test: Post-emergence herbicidal action against STEME; format: in vivo, Stellaria media; conditions: Stellaria media, 504 h
Method in brief: as §1

VERPE [12] = test: Pre-emergence herbicidal action against VERPE; format: in vivo, Veronica persica; conditions: Veronica persica, 504 h, dosage 320 g/ha
Method in brief: as §2

AVEFA [13] = test: Post-emergence herbicidal action against AVEFA; format: in vivo, Avena fatua; conditions: Avena fatua, 504 h, visual assessment about 3 weeks after treatment, 100% = plants have died, 0% = like control plants
Method in brief: as §1

POLCO [14] = test: Pre-emergence herbicidal action against POLCO; format: in vivo, Polygonum convolvulus; conditions: Fallopia convolvulus, 504 h, dosage 320 g/ha
Method in brief: as §2

ECHCG = test: Post-emergence herbicidal action against ECHCG; format: in vivo, Echinochloa crus-galli; conditions: Echinochloa crus-galli, 504 h; for pest or weed control at 20 g/ha: dosage 20 g/ha; for pest or weed control at 80 g/ha: dosage 80 g/ha
Method in brief: as §1

POLCO [15] = test: Post-emergence herbicidal action against POLCO; format: in vivo, Polygonum convolvulus; conditions: Fallopia convolvulus, 504 h; for pest or weed control at 80 g/ha: dosage 80 g/ha
Method in brief: as §1

AVEFA [16] = test: Pre-emergence herbicidal action against AVEFA; format: in vivo, Avena fatua; conditions: Avena fatua, 504 h, pre-emergence; for pest or weed control at 320 g/ha: scored visually after 3 weeks, 100% = plants have died, 0% = like control plants
Method in brief: as §2

CNC(=O)c1c(C(F)F)ccc(C(=O)Nc2nnnn2C)c1Cl [Example 1-147]
pest or weed control at 20 g/ha (MATIN [1]): 100% | pest or weed control at 80 g/ha (MATIN [1]): 100% | pest or weed control at 80 g/ha (ALOMY [2]): 90% | pest or weed control at 320 g/ha (ALOMY [2]): 100% | pest or weed control at 80 g/ha (MATIN [3]): 90% | pest or weed control at 320 g/ha (MATIN [3]): 100% | pest or weed control at 20 g/ha (PHBPU; dosage 20 g/ha): 80% | pest or weed control at 80 g/ha (PHBPU): 90% | pest or weed control at 80 g/ha (SETVI): 100% | pest or weed control at 320 g/ha (SETVI): 100% | pest or weed control at 20 g/ha (ABUTH [4]): 90% | pest or weed control at 80 g/ha (ABUTH [4]): 90% | pest or weed control at 20 g/ha (HORMU [5]): 80% | pest or weed control at 80 g/ha (HORMU [5]): 90% | pest or weed control at 80 g/ha (AMARE): 100% | pest or weed control at 320 g/ha (AMARE): 100% | pest or weed control at 20 g/ha (ALOMY [6]): 80% | pest or weed control at 80 g/ha (ALOMY [6]): 90% | pest or weed control at 20 g/ha (VERPE [7]): 90% | pest or weed control at 80 g/ha (VERPE [7]): 90% | pest or weed control at 80 g/ha (STEME [8]): 100% | pest or weed control at 320 g/ha (STEME [8]): 100% | pest or weed control at 80 g/ha (VIOTR): 80% | pest or weed control at 320 g/ha (LOLRI): 100% | pest or weed control at 80 g/ha (ABUTH [9]): 90% | pest or weed control at 320 g/ha (ABUTH [9]): 100% | pest or weed control at 80 g/ha (HORMU [10]): 90% | pest or weed control at 320 g/ha (HORMU [10]): 100% | pest or weed control at 20 g/ha (STEME [11]): 80% | pest or weed control at 80 g/ha (STEME [11]): 90% | pest or weed control at 320 g/ha (VERPE [12]): 90% | pest or weed control at 20 g/ha (AVEFA [13]): 90% | pest or weed control at 80 g/ha (AVEFA [13]): 90% | pest or weed control at 320 g/ha (POLCO [14]): 90% | pest or weed control at 20 g/ha (ECHCG): 90% | pest or weed control at 80 g/ha (ECHCG): 90% | pest or weed control at 20 g/ha (POLCO [15]; dosage 20 g/ha): 90% | pest or weed control at 80 g/ha (POLCO [15]): 90% | pest or weed control at 80 g/ha (AVEFA [16]): 100% | pest or weed control at 320 g/ha (AVEFA [16]): 100%

CCn1nnnc1NC(=O)c1ccc(C(F)F)c(C(=O)NC)c1Cl [Example 2-147]
pest or weed control at 20 g/ha (MATIN [1]): 100% | pest or weed control at 80 g/ha (MATIN [1]): 100% | pest or weed control at 80 g/ha (ALOMY [2]): 90% | pest or weed control at 320 g/ha (ALOMY [2]): 100% | pest or weed control at 80 g/ha (MATIN [3]): 100% | pest or weed control at 320 g/ha (MATIN [3]): 100% | pest or weed control at 80 g/ha (PHBPU): 80% | pest or weed control at 80 g/ha (SETVI): 100% | pest or weed control at 320 g/ha (SETVI): 100% | pest or weed control at 20 g/ha (ABUTH [4]): 90% | pest or weed control at 80 g/ha (ABUTH [4]): 90% | pest or weed control at 20 g/ha (HORMU [5]): 80% | pest or weed control at 80 g/ha (HORMU [5]): 90% | pest or weed control at 80 g/ha (AMARE): 100% | pest or weed control at 320 g/ha (AMARE): 100% | pest or weed control at 20 g/ha (ALOMY [6]): 80% | pest or weed control at 80 g/ha (ALOMY [6]): 90% | pest or weed control at 20 g/ha (VERPE [7]): 80% | pest or weed control at 80 g/ha (VERPE [7]): 90% | pest or weed control at 80 g/ha (STEME [8]): 100% | pest or weed control at 320 g/ha (STEME [8]): 100% | pest or weed control at 80 g/ha (VIOTR): 80% | pest or weed control at 320 g/ha (LOLRI): 90% | pest or weed control at 80 g/ha (ABUTH [9]): 100% | pest or weed control at 320 g/ha (ABUTH [9]): 100% | pest or weed control at 80 g/ha (HORMU [10]): 90% | pest or weed control at 320 g/ha (HORMU [10]): 100% | pest or weed control at 20 g/ha (STEME [11]): 80% | pest or weed control at 80 g/ha (STEME [11]): 90% | pest or weed control at 320 g/ha (VERPE [12]): 90% | pest or weed control at 20 g/ha (AVEFA [13]): 90% | pest or weed control at 80 g/ha (AVEFA [13]): 100% | pest or weed control at 320 g/ha (POLCO [14]): 80% | pest or weed control at 20 g/ha (ECHCG): 90% | pest or weed control at 80 g/ha (ECHCG): 90% | pest or weed control at 80 g/ha (POLCO [15]): 80% | pest or weed control at 80 g/ha (AVEFA [16]): 100% | pest or weed control at 320 g/ha (AVEFA [16]): 100%
